The text below walks through data of publication PMC6316600, “Analgesic Activity of Acid-Sensing Ion Channel 3 (ASIС3) Inhibitors: Sea Anemones Peptides Ugr9-1 and APETx2 versus Low Molecular Weight Compounds” (Marine Drugs, 2018).

Bridge positions count the residues as written; N and C are the ends. Peptide text beside a SMILES is read from it.

The test system of data set [1] is mice. The experiment in a line: Open field test. Type of data set: in vivo, CD-1 mice. The note with it: 1 mg/kg intramuscular, 4 h before; n = 6–7. The method, then: An open field test was carried out on mice to estimate the possible sedative effects of compounds administration. No statistically significant changes were detected between ASIC3 antagonist-treated groups and the control animals group in 5-min observations of 12 parameters.
Figure 2 Open field experiments on mice. Administration of compounds at a 1 mg/kg dose intramuscularly was done 4 h before of the measurements. (A) Travelling distance and (B) locomotion activity presented as mean ± SEM for 5-min recording period (n = 6–7).
(§1) Adult male CD-1 mice (Animal Breeding Facility Branch of Shemyakin-Ovchinnikov Institute of Bioorganic Chemistry, Russian Academy of Sciences, Pushchino, Russia) weighing 20–25 g were used. Animals that originally passed clinical examination that confirmed no deviations in health were divided into groups (at least eight male mice per group) using the principle of randomization. The average body weight of animals in each group was not statistically different between groups. Animals were housed at room temperature (23 ± 2 °C) and subjected to a 12-h light-dark cycle with food and water available ad libitum. All experiments were performed after receiving approval from the Animal Care and Use Committee of the Branch of the Institute of Bioorganic Chemistry, Russian Academy of Sciences (IBCh RAS) (Pushchino, Russia Federation). The samples were administered intramuscularly 2 h before testing (4 h in the open field test). The initial dose of 1 mg/kg was investigated for all samples, which was further reduced 5, 50, and 500 times for peptides.
In the locomotion measurements, exploration and anxiety were evaluated in the motor activity test on a computerized TSE Multi Conditioning System (TSE Systems GmbH, Bad Homburg, Germany). Four hours after the administration of the sample, the measurement was made, which lasted for 3 min. […]
The data significance in animal tests was determined by an analysis of variance followed by a Tukey’s test. […]

The test system of data set [2] is mice. Nature of the data set: CFA-induced paw oedema. Type of data set: in vivo, CD-1 mice. The note with it: n = 7–8; for Reduction of inflammation (paw oedema): within 24 h; for Anti-inflammatory effect within 4 h: intramuscular, within 4 h after administration. The method, then: To reveal the anti-inflammatory effects of ASIC3 antagonists, paw oedema changes were also evaluated (Figure 5). […] APETx2 in a dose of 1 mg/kg reduced paw oedema by 16%, 24%, and 44% compared to the control group at 2, 4, and 24 h after administration, respectively. APETx2 at 0.2 mg/kg reduced inflammation by approximately 20% only 24 h after administration.
Figure 5 Anti-inflammatory effect of ligands. […] Results are presented as mean ± SEM (n = 7–8). * p < 0.05, ** p < 0.01, *** p < 0.001 versus saline group (ANOVA followed by a Tukey’s test).
as §1
CFA suspended in an oil/saline (1:1) emulsion was injected into the dorsal surfaces of the left hind paws of mice (20 µL/paw) 24 h before the samples’ intramuscular injection. The control mice received 20 µL of saline (intraplantar). The paw withdrawal latencies to thermal stimulation (53 °C) were measured 2 h after the sample injection. The paw diameter was evaluated before the CFA injection, before the samples and saline administration, and 2, 4, and 24 h after the administration using a digital calliper.
The data significance in animal tests was determined by an analysis of variance followed by a Tukey’s test. Data are presented as the mean ± SEM.

The next data set relates to animal models of pain. The following applies: cited from earlier work.
Data set [3] deals with CFA-induced thermal hyperalgesia. The following applies: cited from earlier work. The method, then: An inhibition of ASIC3 was reported to be an attractive approach to producing analgesia. […] Other nonspecific substances can also influence ASIC3 activity. […] Several ligands with inhibitory properties were found for this receptor, each of which was able to induce analgesia in animal tests. The most well-known inhibitor APETx2 in various studies has been tested on models of acid-induced muscle pain model, CFA-induced inflammatory pain model (at doses of 0.07, 0.22 and 2.2 µM). Ugr9-1 was studied in models of CFA-induced thermal hyperalgesia and acetic acid writhing test (at doses of 0.5, 0.1, and 0.01 mg/kg). […] The nonspecific actions on other cellular targets and the changes of ASIC3 involvement in the inflammatory process induced by the high antagonists’ concentration for 2 h are suspected. We conclude that the inhibition of both components of ASIC3 currents could be beneficial but could be reversed by hormesis in high doses and during a long exposure to ...

Another data set has as its system acetic acid writhing. The following applies: cited from earlier work. The method, then:
ASIC3 channels play an important role in the perception and maintenance of pain signals in peripheral neurons. Several ligands with inhibitory properties were found for this receptor, each of which was able to induce analgesia in animal tests. The most well-known inhibitor APETx2 in various studies has been tested on models of acid-induced muscle pain model, CFA-induced inflammatory pain model (at doses of 0.07, 0.22 and 2.2 µM). Ugr9-1 was studied in models of CFA-induced thermal hyperalgesia and acetic acid writhing test (at doses of 0.5, 0.1, and 0.01 mg/kg). […] The nonspecific actions on other cellular targets and the changes of ASIC3 involvement in the inflammatory process induced by the high antagonists’ concentration for 2 h are suspected. We conclude that the inhibition of both components of ASIC3 currents could be beneficial but could be reversed by hormesis in high doses and during a long exposure to ...

For data set [4] the following is noted: cited from earlier work. The text has this:
Several explanations could be proposed. First, the result of partial ASIC1a inhibition is unpredictable. Second, better bioavailability of sevanol compared with Ugr9-1 can enhance the effect. Peptides from sea anemones have rather shor ...

In the next data set the test system is ASIC1a. The note with it: cited from earlier work. The source says: An inhibition of ASIC3 was reported to be an attractive approach to producing analgesia. […] Other nonspecific substances can also influence ASIC3 activity.
Setting [5] is: intravenous, 30 min before testing.

`CC[C@H](C)[C@H](N)C(=O)N[C@@H](CO)C(=O)N[C@H](C(=O)N[C@@H](CC(=O)O)C(=O)N1CCC[C@H]1C(=O)N1CCC[C@H]1C(=O)N[C@H]1CSSC[C@@H](C(=O)NCC(=O)N[C@@H](C)C(=O)N[C@H](C(=O)O)C(C)C)NC(=O)CNC(=O)[C@H](Cc2ccc(O)cc2)NC(=O)[C@H](C)NC(=O)[C@H](CC(=O)O)NC(=O)[C@H](Cc2ccc(O)cc2)NC(=O)[C@H](C(C)C)NC(=O)[C@@H]2CSSC[C@H](NC(=O)[C@H](Cc3ccccc3)NC(=O)[C@H](CCCNC(=N)N)NC1=O)C(=O)N[C@@H](Cc1ccc(O)cc1)C(=O)N[C@@H](Cc1c[nH]cn1)C(=O)N[C@@H](CCCNC(=N)N)C(=O)N[C@@H](CC(=O)O)C(=O)NCC(=O)N[C@@H](CO)C(=O)NCC(=O)N[C@@H](CC(N)=O)C(=O)N2)[C@@H](C)CC` [Ugr9-1] (H-ISIDPPCRFCYHRDGSGNCVYDAYGCGAV-OH; disulfide 7-26, 10-19; N-terminus and C-terminus assumed): in the data set with mice [1], the “Travelled distance, time spent freezing, distance in the central area versus control” value is “each of these differences was nonsignificant”. Moreover, the “Reduction of inflammation (paw oedema)” value in the data set on mice [2] (0.02 mg/kg intramuscular) is on record as 31%. Further, the “Anti-inflammatory effect within 4 h” value in the data set with mice [2] was “did not produce significant anti-inflammatory effects within 4 h”. Further, the Analgesic effect entry in the data set with animal models of pain (0.1–0.5 mg/kg) is “significant analgesic effect”. Also, in data set [3] (setting [5]), the “Dose dependence, CFA thermal hyperalgesia test” value was “clearly dose-dependent”. In addition, the “Efficacy in acetic acid writhing test” value in the data set with acetic acid writhing (setting [5]) is given as ~ 50%.

Take `O=C(O)Cc1ccccc1Nc1c(Cl)cccc1Cl` [diclofenac, reference compound]: in data set [4], the Circulating half-life entry is “about 2 h” and the “Time of final elimination from the blood flow” value is 10 h. Further, in the data set with mice [2], the “Anti-inflammatory effect within 4 h” value is on record as “did not produce significant anti-inflammatory effects within 4 h”. In data set [3] (100 mg/kg i.p.), the “Effect on CFA-induced thermal hyperalgesia” value is given as “significantly reduced CFA-induced thermal hyperalgesia”. Further, the “Effect on acetic acid-induced writhing” value in the data set on acetic acid writhing (20 mg/kg i.p.) is “inhibited acetic acid-induced writhing”.

For the compound `O=C(O)C[C@H](C(=O)O)[C@@H](OC(=O)C1=Cc2cc(O)c(O)cc2[C@@H](c2ccc(O)c(O)c2)[C@@H]1C(=O)O[C@@H](C(=O)O)[C@H](CC(=O)O)C(=O)O)C(=O)O` [sevanol], the “Travelled distance, time spent freezing, distance in the central area versus control” value in the data set on mice [1] is “each of these differences was nonsignificant”. For the same compound, the “Reduction of inflammation (paw oedema)” value in the data set with mice [2] (2.5 mg/kg intramuscular) came to 22%. The “Anti-inflammatory effect within 4 h” value in the data set on mice [2] was “did not produce significant anti-inflammatory effects within 4 h”. Also, in the data set with animal models of pain (mice, 1–10 mg/kg), the “Analgesic and anti-inflammatory effect” value is “pronounced analgesic and anti-inflammatory activity”. Moreover, the “Inhibition of ASIC1a” value with ASIC1a is reported as “able to inhibit ASIC1a”.
